In ChEMBL document CHEMBL1124314, “Development of phosphonate derivatives of gadolinium chelates for NMR imaging of calcified soft tissues” (J Med Chem, 1989):

Legend:
Rattus norvegicus [1] = species: Rattus norvegicus; test: Biodistribution in rat heart in the presence of GdDTPA; settings: in vivo
Rattus norvegicus [2] = species: Rattus norvegicus; test: Biodistribution in rat heart in the presence of GdDTPA at 20 min; settings: in vivo, 0.33 h
Rattus norvegicus [3] = species: Rattus norvegicus; test: Biodistribution in rat bone in the presence of GdDTPA-BDP at 1 h; settings: in vivo
Rattus norvegicus [4] = species: Rattus norvegicus; test: Biodistribution in rat bone in the presence of GdDTPA-BDP at 4 hr; format: ADME, organism-based, Bone element; settings: in vivo
Rattus norvegicus [5] = species: Rattus norvegicus; test: Biodistribution in rat kidney in the presence of 0.05 M/0.08 M GdDTPA-HPDP; format: ADME, organism-based; settings: in vivo
Rattus norvegicus [6] = species: Rattus norvegicus; test: Biodistribution in rat heart in the presence of 0.05 M/0.08 M GdDTPA-HPDP; format: ADME, organism-based; settings: in vivo
Rattus norvegicus [7] = species: Rattus norvegicus; test: Biodistribution in rat liver in the presence of GdDTPA at 30 min; format: ADME, organism-based; settings: in vivo, 0.5 h
Rattus norvegicus [8] = species: Rattus norvegicus; test: Biodistribution in rat bone in the presence of 0.05 M/0.05 M GdDTPA-AEP; format: ADME, organism-based, Bone element; settings: in vivo
Rattus norvegicus [9] = species: Rattus norvegicus; test: Biodistribution in rat muscle in the presence of 0.10 M GdDTPA-BDP; format: ADME, organism-based, Muscle tissue; settings: in vivo
Rattus norvegicus [10] = species: Rattus norvegicus; test: Biodistribution in rat kidney in the presence of 0.001 M/0.008 M GdDTPA-AEP; settings: in vivo
Rattus norvegicus [11] = species: Rattus norvegicus; test: Biodistribution in rat blood in the presence of GdDTPA-HPDP at 30 min; format: ADME, organism-based; settings: in vivo, 0.5 h
Rattus norvegicus [12] = species: Rattus norvegicus; test: Biodistribution in rat muscle in the presence of 0.01 M GdDTPA-BDP; format: ADME, organism-based, Muscle tissue; settings: in vivo
Rattus norvegicus [13] = species: Rattus norvegicus; test: Biodistribution in rat muscle in the presence of GdDTPA-HPDP at 1 hr; format: ADME, organism-based, Muscle tissue; settings: in vivo
Rattus norvegicus [14] = species: Rattus norvegicus; test: Biodistribution in rat blood in the presence of NAC Gd/0.01 M GdDTPA-HPDP; format: ADME, organism-based; settings: in vivo
Rattus norvegicus [15] = species: Rattus norvegicus; test: Biodistribution in rat heart in the presence of GdDTPA-BDP at 2 hr; settings: in vivo
Rattus norvegicus [16] = species: Rattus norvegicus; test: Biodistribution in rat liver in the presence of 0.05 M/0.08 M GdDTPA-HPDP; format: ADME, organism-based; settings: in vivo
Rattus norvegicus [17] = species: Rattus norvegicus; test: Biodistribution in rat blood in the presence of 0.05 M GdDTPA-BDP; format: ADME, organism-based; settings: in vivo
Rattus norvegicus [18] = species: Rattus norvegicus; test: Biodistribution in rat spleen in the presence of 0.10 M GdDTPA-BDP; format: ADME, organism-based; settings: in vivo
Rattus norvegicus [19] = species: Rattus norvegicus; test: Biodistribution in rat liver in the presence of 0.05 M GdDTPA-BDP; format: ADME, organism-based; settings: in vivo
Rattus norvegicus [20] = species: Rattus norvegicus; test: Biodistribution in rat blood in the presence of 0.05 M/0.05 M GdDTPA-AEP; format: ADME, organism-based; settings: in vivo
Rattus norvegicus [21] = species: Rattus norvegicus; test: Biodistribution in rat blood in the presence of 0.10 M GdDTPA-BDP; format: ADME, organism-based; settings: in vivo
Rattus norvegicus [22] = species: Rattus norvegicus; test: Biodistribution in rat spleen in the presence of 0.01 M GdDTPA-BDP; format: ADME, organism-based; settings: in vivo
Rattus norvegicus [23] = species: Rattus norvegicus; test: Biodistribution in rat blood in the presence of GdDTPA at 30 min; format: ADME, organism-based; settings: in vivo, 0.5 h
Rattus norvegicus [24] = species: Rattus norvegicus; test: Biodistribution in rat heart in the presence of 0.01 M Gd/0.01 M GdDTPA-AEP; format: ADME, organism-based; settings: in vivo
Rattus norvegicus [25] = species: Rattus norvegicus; test: Biodistribution in rat blood in the presence of GdDTPA-BDP at 1 hr; settings: in vivo
Rattus norvegicus [26] = species: Rattus norvegicus; test: Biodistribution in rat heart in the presence of GdDTPA-HPDP at 4 hr; format: ADME, organism-based; settings: in vivo
Rattus norvegicus [27] = species: Rattus norvegicus; test: Biodistribution in rat liver in the presence of 0.01 M/0.01 M GdDTPA-AEP; format: ADME, organism-based; settings: in vivo
Rattus norvegicus [28] = species: Rattus norvegicus; test: Biodistribution in rat bone in the presence of 0.01 M GdDTPA-BDP; format: ADME, organism-based, Bone element; settings: in vivo
Rattus norvegicus [29] = species: Rattus norvegicus; test: Biodistribution in rat liver in the presence of GdDTPA-BDP at 20 min; settings: in vivo, 0.33 h
Rattus norvegicus [30] = species: Rattus norvegicus; test: Biodistribution in rat liver in the presence of GdDTPA at 1 hr; format: ADME, organism-based; settings: in vivo
Rattus norvegicus [31] = species: Rattus norvegicus; test: Biodistribution in rat heart in the presence of 0.001 M/0.008 M GdDTPA-AEP; settings: in vivo
Rattus norvegicus [32] = species: Rattus norvegicus; test: Biodistribution in rat heart in the presence of 0.01 M GdDTPA-BDP; format: ADME, organism-based; settings: in vivo
Rattus norvegicus [33] = species: Rattus norvegicus; test: Biodistribution in rat bone in the presence of GdDTPA-HPDP at 15 min; format: ADME, organism-based, Bone element; settings: in vivo, 0.25 h
Rattus norvegicus [34] = species: Rattus norvegicus; test: Biodistribution in rat muscle in the presence of GdDTPA-BDPat 15 min; format: ADME, organism-based, Muscle tissue; settings: in vivo, 0.25 h
Rattus norvegicus [35] = species: Rattus norvegicus; test: Biodistribution in rat bone in the presence of 0.001 M/0.008 M GdDTPA-AEP; settings: in vivo
Rattus norvegicus [36] = species: Rattus norvegicus; test: Biodistribution in rat liver in the presence of GdDTPA-HPDP at 30 min; format: ADME, organism-based; settings: in vivo, 0.5 h
Rattus norvegicus [37] = species: Rattus norvegicus; test: Biodistribution in rat muscle in the presence of GdDTPA-HPDPat 15 min; format: ADME, organism-based, Muscle tissue; settings: in vivo, 0.25 h
Rattus norvegicus [38] = species: Rattus norvegicus; test: Biodistribution in rat bone in the presence of GdDTPA-BDP at 4 hr; settings: in vivo
Rattus norvegicus [39] = species: Rattus norvegicus; test: Biodistribution in rat liver in the presence of GdDTPA at 15 min; format: ADME, organism-based; settings: in vivo, 0.25 h
Rattus norvegicus [40] = species: Rattus norvegicus; test: Biodistribution in rat bone in the presence of 0.05 M/0.08 M GdDTPA-HPDP; format: ADME, organism-based, Bone element; settings: in vivo
Rattus norvegicus [41] = species: Rattus norvegicus; test: Biodistribution in rat muscle in the presence of GdDTPA-HPDP at 4 hr; format: ADME, organism-based, Muscle tissue; settings: in vivo
Rattus norvegicus [42] = species: Rattus norvegicus; test: Biodistribution in rat bone in the presence of GdDTPA-BDP at 20 min; settings: in vivo, 0.33 h
Rattus norvegicus [43] = species: Rattus norvegicus; test: Biodistribution in rat bone in the presence of 0.05 M GdDTPA-BDP; format: ADME, organism-based, Bone element; settings: in vivo
Rattus norvegicus [44] = species: Rattus norvegicus; test: Biodistribution in rat bone in the presence of GdDTPA-HPDP at 4 hr; format: ADME, organism-based, Bone element; settings: in vivo
Rattus norvegicus [45] = species: Rattus norvegicus; test: Biodistribution in rat bone in the presence of GdDTPA at 20 min; settings: in vivo, 0.33 h
Rattus norvegicus [46] = species: Rattus norvegicus; test: Biodistribution in rat liver in the presence of 0.10 M GdDTPA-BDP; format: ADME, organism-based; settings: in vivo
Rattus norvegicus [47] = species: Rattus norvegicus; test: Biodistribution in rat muscle in the presence of GdDTPA-BDP at 1 hr; format: ADME, organism-based, Muscle tissue; settings: in vivo
Rattus norvegicus [48] = species: Rattus norvegicus; test: Biodistribution in rat kidney in the presence of 0.05 M/0.05 M GdDTPA-AEP; format: ADME, organism-based; settings: in vivo
Rattus norvegicus [49] = species: Rattus norvegicus; test: Biodistribution in rat liver in the presence of NAC Gd/0.01 M GdDTPA-HPDP; format: ADME, organism-based; settings: in vivo
Rattus norvegicus [50] = species: Rattus norvegicus; test: Biodistribution in rat heart in the presence of GdDTPA at 1 hr; format: ADME, organism-based; settings: in vivo
Rattus norvegicus [51] = species: Rattus norvegicus; test: Biodistribution in rat heart in the presence of GdDTPA-BDP at 1 hr; settings: in vivo
Rattus norvegicus [52] = species: Rattus norvegicus; test: Biodistribution in rat blood in the presence of GdDTPA at 20 min; settings: in vivo, 0.33 h
Rattus norvegicus [53] = species: Rattus norvegicus; test: Biodistribution in rat liver in the presence of GdDTPA at 4 hr; format: ADME, organism-based; settings: in vivo
Rattus norvegicus [54] = species: Rattus norvegicus; test: Biodistribution in rat bone in the presence of 0.01 M/0.01 M GdDTPA-AEP; format: ADME, organism-based, Bone element; settings: in vivo

SMILES: O=C(O)CN(CCN(CC(=O)O)CC(=O)O)CCN(CC(=O)O)CC(=O)O [PENTETIC ACID]
- ID/organ (Rattus norvegicus [1]): 0.019%
- ID/organ (Rattus norvegicus [2]): 0.097%
- ID/organ (Rattus norvegicus [3]): 17.6%
- ID/organ (Rattus norvegicus [4]): 18.5%
- ID/organ (Rattus norvegicus [5]): 0.423%
- ID/organ (Rattus norvegicus [6]): 0.007%
- ID/organ (Rattus norvegicus [7]): 0.418%
- ID/organ (Rattus norvegicus [8]): 0.483%
- ID/organ (Rattus norvegicus [9]): 3.59%
- ID/organ (Rattus norvegicus [10]): 0.268%
- ID/organ (Rattus norvegicus [11]): 2.46%
- ID/organ (Rattus norvegicus [12]): 4.38%
- ID/organ (Rattus norvegicus [13]): 0.889%
- ID/organ (Rattus norvegicus [14]): 0.26%
- ID/organ (Rattus norvegicus [15]): 0.048%
- ID/organ (Rattus norvegicus [16]): 0.109%
- ID/organ (Rattus norvegicus [17]): 2.53%
- ID/organ (Rattus norvegicus [18]): 0.013%
- ID/organ (Rattus norvegicus [19]): 1.23%
- ID/organ (Rattus norvegicus [20]): 0.556%
- ID/organ (Rattus norvegicus [21]): 1.62%
- ID/organ (Rattus norvegicus [22]): 0.185%
- ID/organ (Rattus norvegicus [23]): 1.02%
- ID/organ (Rattus norvegicus [24]): 0.012%
- ID/organ (Rattus norvegicus [25]): 2.74%
- ID/organ (Rattus norvegicus [26]): 0.003%
- ID/organ (Rattus norvegicus [27]): 18.3%
- ID/organ (Rattus norvegicus [28]): 20.5%
- ID/organ (Rattus norvegicus [29]): 1.02%
- ID/organ (Rattus norvegicus [30]): 0.267%
- ID/organ (Rattus norvegicus [31]): 0.004%
- ID/organ (Rattus norvegicus [32]): 0.129%
- ID/organ (Rattus norvegicus [33]): 15.5%
- ID/organ (Rattus norvegicus [34]): 8.97%
- ID/organ (Rattus norvegicus [35]): 0.264%
- ID/organ (Rattus norvegicus [36]): 0.519%
- ID/organ (Rattus norvegicus [37]): 6.36%
- ID/organ (Rattus norvegicus [38]): 18.5%
- ID/organ (Rattus norvegicus [39]): 1.59%
- ID/organ (Rattus norvegicus [40]): 17.6%
- ID/organ (Rattus norvegicus [41]): 0.223%
- ID/organ (Rattus norvegicus [42]): 11%
- ID/organ (Rattus norvegicus [43]): 16.3%
- ID/organ (Rattus norvegicus [44]): 18.1%
- ID/organ (Rattus norvegicus [45]): 3.5%
- ID/organ (Rattus norvegicus [46]): 0.795%
- ID/organ (Rattus norvegicus [47]): 4.47%
- ID/organ (Rattus norvegicus [48]): 0.264%
- ID/organ (Rattus norvegicus [49]): 0.082%
- ID/organ (Rattus norvegicus [50]): 0.019%
- ID/organ (Rattus norvegicus [51]): 0.055%
- ID/organ (Rattus norvegicus [52]): 6.03%
- ID/organ (Rattus norvegicus [53]): 0.163%
- ID/organ (Rattus norvegicus [54]): 0.641%
